Reference: patent US20150011463A1, “AGENT FOR PREVENTING OR AM[…] ENDOTHELIAL MALFUNCTION” (KYOWA HAKKO BIO CO., LTD., priority 2012, published 2015)

Test system: normal human umbilical vein endothelial cell (HUVEC)
Experiment: NO production (nitrite in culture supernatant by HPLC) in HUVEC
Assay type: cell-based
Conditions: citrulline final concentration 0.3 mM, 24-hour culture, vs control (PBS)
Protocol: The cells were cultured in at 37° C., in 5% CO2 incubator, and used for experiment after 4 to 6 passages. Citrulline and reduced glutathione were obtained from Kyowa Hakko Bio.
A cell suspension (0.45 mL) with the adjusted initial cell concentration of 5×10^5 cells/mL was inoculated in a 24-well plate (IWAKI). After 40-hour culture, the media were replaced with those containing citrulline (final concentration 0.3 mM: citrulline group), reduced glutathione (final concentration 1 mM: high-dose glutathione group), and a citrulline and reduced glutathione mixture (citrulline final concentration 0.3 mM; glutathione final concentration 0.3 mM: citrulline+low-dose glutathione group). Media with the sole addition of solvent (PBS) were used as a control group. After 24-hour culture, the cell culture (100 μL) was centrifuged at 12,000 rpm for 10 minutes, and the concentration of nitrite (NO2), which is the stable NO metabolite, in culture supernatant was quantified by HPLC (ENO-20, EICOM).

Compound: NC(=O)NCCC[C@H](N)C(=O)O [citrulline]
- effect on NO production (concentration of nitrite (NO2) in culture supernatant): no effect
